This is an account of results in publication PMC10144058, “New Hybrid Scaffolds Based on 5-FU/Curcumin: Synthesis, Cytotoxic, Antiproliferative and Pro-Apoptotic Effect” (Pharmaceutics, 2023).

The test system of data set [1] is SW620 cells. The data set can be described thus: Cell viability, sulforhodamine B (SRB) assay. The format is cell-based, human. To be noted: Homo sapiens. The protocol:
(§1) SW480 (colon adenocarcinoma) and SW620 (derived metastatic) malignant cell lines, and the non-malignant lines HaCaT (human keratinocytes) and CHO-K1 (Chinese Hamster Ovary), were obtained from the European Collection of Authenticated Cell Cultures (ECACC, Porton Down, Salisbury, UK). The cells were maintained in Dulbecco’s Modified Eagle’s Medium (DMEM), supplemented with 10% equine serum previously inactivated at 56 °C, 1% penicillin/streptomycin, and 1% non-essential amino acids, and incubated at 37 °C in an atmosphere with 5% CO2. To carry out the experiments, the serum was diluted to 3% and additionally supplemented with […] insulin, […] transferrin, and 5 ng/mL selenium. Cells were used for experimentation when they reached 80–90% confluence, using a 1X trypsin enzymatic disintegration method. To avoid contamination by Mycoplasma spp., cell cultures were periodically analyzed by polymerase chain reaction (PCR).
(§2) Cell viability was evaluated with a sulforhodamine B (SRB) assay. This technique provides an index of protein contents in living and adherent cells, whose optical density can be related to cell concentration. Initially, 20,000 cells were seeded per well in 96-well culture plates. An initial adherence period of 24 h was performed at 37 °C, 5% CO2, and after this, the medium was replaced by another that contained the hybrid compounds in different concentrations. Then, the cells were left incubating for 24 and 48 h under the same conditions previously described. After the respective incubation times, the cells were fixed with trichloroacetic acid (50% v/v) for 1 h at 4 °C and stained with 0.4% (p/v) of SRB. Subsequently, washings with 1% acetic acid were carried out to eliminate possible nonspecific bindings, and after solubilization with 10 mM Tris-base, the absorbance was read at 492 nm in a microplate reader (Mindray MR-96A). All the experiments were carried out in triplicate.
For orientation: In SRB staining, fixed cells bind dye roughly in proportion to their protein.

For a further data set, the system named is SW480 cells. The data set can be described thus: Cell viability, sulforhodamine B (SRB) assay. The class given is cell-based. Particulars: Homo sapiens. The protocol: as §1, §2
The subject of another data set is CHO-K1 cells. The data set can be described thus: Cell viability, sulforhodamine B (SRB) assay, non-malignant cells. The class given is cell-based, Chinese Hamster. Particulars: Cricetulus griseus. The protocol:
as §1, §2

The next data set has as its system HaCaT cells. The description is as above. The format is cell-based. To be noted: Homo sapiens. The procedure: as §1, §2
The test system of data set [2] is SW620 cells. Also on record: method as in PMID 36297411. To be noted: cited from earlier work.

The structures appear in SMILES notation. Like-named read-outs stand apart in the source and are kept apart here.

In the case of `O=c1[nH]cc(F)c(=O)[nH]1` [Compound 5-FU, 5-fluorouracil, reference compound], the IC50 with SW620 cells [1] (SW-620, 24 h, 24 h) was determined as 899 ± 60.7 µM; in the data set on SW620 cells [1] (SW-620, 48 h, 48 h), 181 ± 18.8 µM; in the data set with SW480 cells (SW480, 24 h), 1540 ± 128 µM; in the data set with SW480 cells (SW480, 48 h), 174 ± 19.1 µM; in the data set with CHO-K1 cells (CHO-K1, 24 h), 544 ± 52.9 µM; in the data set on CHO-K1 cells (CHO-K1, 48 h) it was 173 ± 14.6 µM. The IC50 with HaCaT cells (24 h) was above 1000 µM; in the data set with HaCaT cells (48 h), 119 ± 2.84 µM.

`COc1cc(/C=C/C(=O)c2ccc(OCCCn3cc(Cn4cc(F)c(=O)[nH]c4=O)nn3)cc2)ccc1O` [Compound 6b, (E)-5-fluoro-1-((1-(3-(4-(3-(4-hydroxy-3-methoxyphenyl)acryloyl)phenoxy)propyl)-1H-1,2,3-triazol-4-yl)methyl)pyrimidine-2,4(1H,3H)-dione]: the melting point was in the range of 124 to 129 °C. The half-inhibitory concentration (IC50) in the data set on SW620 cells [1] (SW-620, 24 h, 24 h) came out at 90.2 ± 9.33 µM. The same molecule gave an IC50 in the data set with SW620 cells [1] (SW-620, 48 h, 48 h) of 33.7 ± 1.03 µM. The IC50 in the data set with SW480 cells (SW480, 24 h) is 48.4 ± 2.82 µM. For the same molecule, the IC50 with SW480 cells (SW480, 48 h) was 17.1 ± 0.8 µM. In the data set with CHO-K1 cells (CHO-K1, 24 h), this molecule returned an IC50 of 51.3 ± 2.86 µM. Further, 46.5 ± 1.34 µM corresponded to half-maximal inhibition in the data set on CHO-K1 cells (CHO-K1, 48 h) (IC50). The same molecule came in with an IC50 in the data set on HaCaT cells (24 h) of 58.1 ± 3.3 µM. The IC50 in the data set with HaCaT cells (48 h) came out at 18.4 ± 1.1 µM.

On to `COc1cc(/C=C/C(=O)c2ccc(OCCCCn3cc(Cn4cc(F)c(=O)[nH]c4=O)nn3)cc2)ccc1O` [Compound 6c, (E)-5-fluoro-1-((1-(4-(4-(3-(4-hydroxy-3-methoxyphenyl)acryloyl)phenoxy)butyl)-1H-1,2,3-triazol-4-yl)methyl)pyrimidine-2,4(1H,3H)-dione], for which the melting point fell in the range of 61 to 65 °C. Also, the midpoint of inhibition in the data set with SW620 cells [1] (SW-620, 24 h, 24 h), the IC50, lay at 83.9 ± 8.08 µM. Moreover, 28.1 ± 1.85 µM corresponded to half-maximal inhibition with SW620 cells [1] (SW-620, 48 h, 48 h) (IC50). Half-maximal inhibition in the data set on SW480 cells (SW480, 24 h) (IC50) was put at 30.4 ± 2.69 µM. In the data set on SW480 cells (SW480, 48 h), this molecule yielded an IC50 of 16.4 ± 0.97 µM. The IC50 in the data set on CHO-K1 cells (CHO-K1, 24 h) came to 26.3 ± 2.99 µM. Half-maximal inhibition with CHO-K1 cells (CHO-K1, 48 h) (IC50) required 30.5 ± 2.18 µM. In the data set on HaCaT cells (24 h), this molecule gave an IC50 of 45.4 ± 4.18 µM. This molecule also showed an IC50 with HaCaT cells (48 h) of 19.1 ± 1.68 µM.

Take `COc1cc(/C=C/C(=O)c2ccc(OCCCCCCCCn3cc(Cn4cc(F)c(=O)[nH]c4=O)nn3)cc2)ccc1O` [Compound 6f, (E)-5-fluoro-1-((1-(8-(4-(3-(4-hydroxy-3-methoxyphenyl)acryloyl)phenoxy)octyl)-1H-1,2,3-triazol-4-yl)methyl)pyrimidine-2,4(1H,3H)-dione]: the melting point is 98 to 102 °C. The IC50 in the data set on SW620 cells [1] (SW-620, 24 h, 24 h) is above 100 µM. This molecule returned a half-inhibitory concentration (IC50) in the data set with SW620 cells [1] (SW-620, 48 h, 48 h) above 100 µM. Besides, the IC50 with SW480 cells (SW480, 24 h) was above 100 µM. This molecule also gave an IC50 in the data set with SW480 cells (SW480, 48 h) of 29.7 ± 2.43 µM. For the same molecule, the IC50 in the data set with CHO-K1 cells (CHO-K1, 24 h) was above 100 µM. The molecule further came in with an IC50 with CHO-K1 cells (CHO-K1, 48 h) above 100 µM. The molecule further returned an IC50 in the data set with HaCaT cells (24 h) above 100 µM. The IC50 in the data set on HaCaT cells (48 h) stood at 35.1 ± 4.74 µM.

Molecule `COc1cc(/C=C/C(=O)c2ccc(OCCCCCCCCCn3cc(Cn4cc(F)c(=O)[nH]c4=O)nn3)cc2)ccc1O` [Compound 6g, (E)-5-fluoro-1-((1-(9-(4-(3-(4-hydroxy-3-methoxyphenyl)acryloyl)phenoxy)nonyl)-1H-1,2,3-triazol-4-yl)methyl)pyrimidine-2,4(1H,3H)-dione] yielded a melting point of 113 to 120 °C. The IC50 with SW620 cells [1] (SW-620, 24 h, 24 h) was above 100 µM. For the same molecule, in the data set on SW620 cells [1] (SW-620, 48 h, 48 h), the IC50 was above 100 µM. Also, in the data set with SW480 cells (SW480, 24 h), the IC50 is above 100 µM. Also, the IC50 in the data set on SW480 cells (SW480, 48 h) is above 100 µM. This molecule gave an IC50 with CHO-K1 cells (CHO-K1, 24 h) above 100 µM. This molecule showed an IC50 with CHO-K1 cells (CHO-K1, 48 h) above 100 µM. Also, the IC50 with HaCaT cells (24 h) was above 100 µM. The molecule also gave an IC50 with HaCaT cells (48 h) above 100 µM.

Molecule `COc1cc(/C=C/C(=O)c2ccc(OCCCCCCCCCCCCn3cc(Cn4cc(F)c(=O)[nH]c4=O)nn3)cc2)ccc1O` [Compound 6h, (E)-5-fluoro-1-((1-(12-(4-(3-(4-hydroxy-3-methoxyphenyl)acryloyl)phenoxy)dodecyl)-1H-1,2,3-triazol-4-yl)methyl)pyrimidine-2,4(1H,3H)-dione] had a melting point of 129 to 135 °C. The IC50 in the data set on SW620 cells [1] (SW-620, 24 h, 24 h) was above 100 µM. The molecule also registered an IC50 in the data set on SW620 cells [1] (SW-620, 48 h, 48 h) above 100 µM. In the data set on SW480 cells (SW480, 24 h), this molecule registered an IC50 above 100 µM. The molecule further showed an IC50 with SW480 cells (SW480, 48 h) above 100 µM. In the data set with CHO-K1 cells (CHO-K1, 24 h), this molecule displayed an IC50 above 100 µM. The same molecule came in with an IC50 in the data set on CHO-K1 cells (CHO-K1, 48 h) above 100 µM. The molecule further yielded a half-inhibitory concentration (IC50) in the data set on HaCaT cells (24 h) above 100 µM. In the data set with HaCaT cells (48 h), this molecule displayed an IC50 above 100 µM.

Take `COc1cc(/C=C/C(=O)CC(=O)/C=C/c2ccc(O)c(OC)c2)ccc1O` [Curcumin, curcumin]: the IC50 in the data set on SW620 cells [1] (SW-620, 24 h, 24 h) turned out to be 164 ± 5.88 µM; in the data set with SW620 cells [1] (SW-620, 48 h, 48 h) it was 22.2 ± 2.37 µM; in the data set on SW480 cells (SW480, 24 h) it was 84.6 ± 6.6 µM; in the data set with SW480 cells (SW480, 48 h), 90.4 ± 1 µM; in the data set on CHO-K1 cells (CHO-K1, 24 h), 20.2 ± 2.41 µM; in the data set with CHO-K1 cells (CHO-K1, 48 h) it was 36.3 ± 4.17 µM. The IC50 is above 100 µM in the data set with HaCaT cells (24 h) and 28.8 ± 2.33 µM with HaCaT cells (48 h).

In the case of `O=c1[nH]c(=O)n(Cc2cn(CCCCCCCCCOc3cc(O)c4c(=O)c(-c5ccc(O)cc5)coc4c3)nn2)cc1F` [F], the IC50 in the data set on SW620 cells [2] was 36.8 ± 0.71 µM.

Usually IC50 stands for the concentration at which inhibition is half-maximal. A word on the melting point: it is the temperature of the solid-liquid transition.
